Assay results published in paper PMC11111408, “Concurrent inhibition of oncogenic and wild-type RAS-GTP for cancer therapy” (Nature, 2024).
Where “and” joins values, the source holds several entries; their conditions need not be identical. Identical values can stand only once.

Tests used:
KRAS WT [1] = target: T1, KRAS WT (Homo sapiens, UniProt P01116+P62937); assay: RAS binding affinity of compound-bound CYPA (Kd2), SPR; design: made in house; host or cells: BL21(DE3) Escherichia coli; conditions: steady state SPR, (95% CI)
CYPA = target: T2, CYPA (Homo sapiens, UniProt P62937); assay: CYPA binding affinity (Kd1), SPR; conditions: steady state, (95% CI)
T2 construct: His6-TEV-AviTag-CYPA (full-length); His6-TEV (N); made in house; host or cells: BL21(DE3) Escherichia coli
Procedure: The binding affinity of compounds for CYPA (Kd1) was assessed by SPR on a Biacore 8K instrument as previously described.

KRAS^G12C [2] = target: T3, KRAS^G12C (Homo sapiens, UniProt P01116+P62937, G12C); assay: Cellular RAS–CYPA binding (tri-complex formation), nano-BRET in U2OS cells; type: cell-based; design: expressed in transfected cells; host or cells: U2OS; conditions: (95% CI)
Description: (§1) KRAS4B, or other small GTPases, containing the indicated mutations were cloned in pNLF-N or pHTN plasmids for expression with an N-terminal nanoluciferase or HaloTag fusion, respectively. […] The following day, the cells were collected by Trypsin and reseeded in a white tissue culture-treated 96-well plate in OptiMem phenol red-free medium (Gibco) containing 4% FBS and a 1:1,000 dilution of NanoBRET 618 HaloTag ligand (Promega). For endpoint concentration response curves, vivazine nanoluciferase substrate was added to 1× concentration in OptiMem phenol red-free medium with 4% FBS. Varying concentrations of inhibitor were added and incubated for 1 or 4 h before the nano-BRET signal was measured on a Perkin Elmer Envision plate reader. For kinetic assays, endurazine nanoluciferase substrate was used in place of vivazine, and the plate was placed in a Cytation5 multi-mode reader pre-equilibrated to 37 °C and 5% CO2.

KRAS^G12D = KRAS^G12D (Homo sapiens, UniProt P01116+P62937, G12D); assay: as above; type: cell-based; design: expressed in transfected cells; host or cells: U2OS; conditions: (95% CI)
Description: as §1

KRAS^G12R = KRAS^G12R (Homo sapiens, UniProt P01116+P62937, G12R); assay: as above; type: cell-based; design: expressed in transfected cells; host or cells: U2OS; conditions: (95% CI)
Description: as §1

KRAS^G13C = KRAS^G13C (Homo sapiens, UniProt P01116+P62937, G13C); assay: as above; type: cell-based; design: expressed in transfected cells; host or cells: U2OS; conditions: (95% CI)
Description: as §1

KRAS WT [3] = target: T1, KRAS WT; assay: as above; type: cell-based; design: expressed in transfected cells; host or cells: U2OS; conditions: (95% CI)
Description: as §1

[4] = Mouse blood and tumour pharmacokinetics in NCI-H441 tumour bearing mice; conditions: for RMC-7977 (nmol/kg) Tumor: single dose, individual animals
Procedure: Tumour tissue samples were homogenized with a 10× volume of methanol/15 mM PBS (1:2, v:v). Sample preparation and analysis on a Sciex 6500+ triple quadrupole mass spectrometer equipped with an ACQUITY UPLC system were performed as previously described[12].
All datapoints shown, n = 3 per dose and timepoint.
Female BALB/c nude mice, NOD SCID and NSG mice 6-8 weeks old from Beijing Vital River/VR Laboratory Animal Co., LTD, Beijing AniKeeper Biotech Co., Ltd., Shanghai Sino-British SIPPR/BK Laboratory Animal Co., LTD and The Jackson Laboratory were used. Animals were housed in polycarbonate cages, in an environmentally monitored, well ventilated room maintained at a constant temperature of 20-26°C and relative humidity of 40-80%. Fluorescent lighting provided illumination approximately 12 hours per day. Each mouse was inoculated at the right flank with tumor cells (2x10^6-1x10^7) in 100-200 µL of media/PBS supplemented with Matrigel (1:1). Treatments were started when the average tumor size reached 100-250 mm^3. […] Mice on studies were weighed and tumor measurements collected twice weekly. […] Body weights were collected twice a week during the study. For single-dose pharmacokinetic/pharmacodynamics (PK/PD) study, mice were randomized into treatment groups when mean tumor volume reached 400-600 mm^3.

KRAS^G12C [5] = target: T3, KRAS^G12C; assay: RAS binding affinity of compound-bound CYPA (Kd2), SPR; design: His6-TEV (N); made in house; host or cells: BL21(DE3) Escherichia coli; conditions: steady state SPR, (95% CI)
[6] = tested on: DUSP6 mRNA in NCI-H441 xenograft tumours; assay: In vivo pharmacodynamic analysis by DUSP6 qPCR in NCI-H441 CDX tumours; design: species or system mouse; conditions: for % inhibition of DUSP6 vs control: single dose, tumor, individual animals
Procedure: RNA extraction and analysis of DUSP6 levels by in tumour tissue were performed as previously described.

[7] = tested on: antigen specific CD8+ T cells, C57BL/6J mice; assay: OVA peptide vaccination, CD8+ T cell response; type: in vivo, mouse; conditions: individual mice; for IFNγ production by ELISpot: 25 mg/kg PO daily, 25 mg/kg
Procedure: Mice were euthanized on day 15 after treatment start, and spleens were harvested and assessed for frequency of antigen specific (H-2Kb [sequence] tetramer positive) CD8 + T cells by flow cytometry (a) and for IFNγ production by ELISpot.
Briefly, bone marrow was isolated from the femurs and tibias of 6-8 week-old female C57BL/6J mice (Jackson Laboratory). Bone marrow cells were plated in complete RPMI containing 10% FBS, 1 mM Sodium Pyruvate, mM HEPES, 1x MEM Non-Essential Amino Acids, and supplemented with GMCSF (Peprotech) at 20 ng/ml. On day 10, 0.5 ng/ml IL-4 (Peptotech) was added to the media. 50% of the media was replaced with fresh GMCSF-containing media on culture days 6, 8, and 10. […] 100% of the media was replaced on culture days 12 and 13. To activate BMDCs prior to vaccination, 0.5 μg/ml CpG (Invivogen, tlrl-1668) and 1 μg/ml LPS (Sigma Aldrich, L5418) were added to the media on day 13. On culture day 14, activated BMDCs were pulsed with OVA peptide ([sequence]) (1 μg/ml, Anaspec, AS-60193-1) for 2 hours and washed 3 times in serum-free RPMI. 1x10^6 peptide-pulsed, activated BMDCS were injected intravenously into each mouse on day 0 and day 8. […] After 15 days of treatment, mice were euthanized and spleens were harvested. Spleens were mechanically dissociated into single-cell suspension, incubated at 4°C for 20 minutes with Mouse Fc blocking agent (anti-CD16/32, Biolegend) and Live/Dead blue Viability Dye (ThermoFisher), and 20 minutes with cell staining antibody mix. […] Murine IFN𝛄 ELISpot (ImmunoSpot, CTL) was performed according to manufacturer’s protocol. Briefly, spleens were mechanically dissociated into single-cell suspension. […] Plates were incubated at 37°C, 5% CO2 for 24 hours before staining and analysis on the CTL ImmunoSpot S6 Universal M2 Analyzer.

KRAS–SOS1 = target: T4, KRAS–SOS1 (Homo sapiens, UniProt P01116+); assay: Cellular nano-BRET, catalytic domain of SOS1 binding to KRAS; type: cell-based; conditions: in the presence of CYPA, single replicates;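 also: U2OS cells expressing partner proteins fused at the N-terminus to nanoluciferase or HaloTag, nano-BRET signal read after inhibitor exposure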
T4 construct: expressed in transfected cells; host or cells: U2OS

[8] = female, BALB/c nude, mouse, tumour, po, 10 mg/kg
[9] = female, BALB/c nude, mouse, whole blood, po, 10 mg/kg

## CCn1c(-c2cc(N3CCN(C4CC4)CC3)cnc2[C@H](C)OC)c2c3cc(ccc31)-c1csc(n1)C[C@H](NC(=O)[C@H]1[C@@H]3COC[C@@H]31)C(=O)N1CCC[C@H](N1)C(=O)OCC(C)(C)C2 [RMC-7977]
KRAS WT [1]
  Kd: 116 nM
CYPA
  Kd: 195 nM
KRAS^G12C [2]
  EC50: 1.27 nM
KRAS^G12D
  EC50: 2.69 nM
KRAS^G12R
  EC50: 2.88 nM
KRAS^G13C
  EC50: 3.7 nM
KRAS WT [3]
  EC50: 9.12 nM
[4]; [8]
  AUC(0-t): 24300 ng·h/mL
  half-life: 18.3 h
[4]; [9]
  AUC(0-t): 7240 ng·h/mL
  Cmax: 1110 ng/mL
  half-life: 2.78 h
[4]; 8h, 1 mg/kg
  RMC-7977 (nmol/kg) Tumor: 244 nmol/kg and 196 nmol/kg and 235 nmol/kg
[4]; 8h, 5 mg/kg
  RMC-7977 (nmol/kg) Tumor: 458 nmol/kg and 496 nmol/kg and 1040 nmol/kg
[4]; 8h, 10 mg/kg
  RMC-7977 (nmol/kg) Tumor: 998 nmol/kg and 832 nmol/kg and 1249 nmol/kg and 1135 nmol/kg and 713 nmol/kg and 1191 nmol/kg
[4]; 8h, 25 mg/kg
  RMC-7977 (nmol/kg) Tumor: 2289 nmol/kg and 4057 nmol/kg and 2196 nmol/kg
[4]; 24h, 1 mg/kg
  RMC-7977 (nmol/kg) Tumor: 38.1 nmol/kg and 54.8 nmol/kg and 48.3 nmol/kg
[4]; 24h, 5 mg/kg
  RMC-7977 (nmol/kg) Tumor: 201 nmol/kg and 183 nmol/kg and 226 nmol/kg
[4]; 24h, 10 mg/kg
  RMC-7977 (nmol/kg) Tumor: 310 nmol/kg and 343 nmol/kg and 320 nmol/kg and 402 nmol/kg and 316 nmol/kg and 606 nmol/kg
[4]; 24h, 25 mg/kg
  RMC-7977 (nmol/kg) Tumor: 1047 nmol/kg and 906 nmol/kg and 996 nmol/kg
[4]; 48h, 1 mg/kg
  RMC-7977 (nmol/kg) Tumor: 27 nmol/kg and 31.7 nmol/kg
[4]; 48h, 5 mg/kg
  RMC-7977 (nmol/kg) Tumor: 68.9 nmol/kg and 51.9 nmol/kg and 52.5 nmol/kg
[4]; 48h, 10 mg/kg
  RMC-7977 (nmol/kg) Tumor: 177 nmol/kg and 192 nmol/kg and 214 nmol/kg and 205 nmol/kg and 233 nmol/kg and 65.7 nmol/kg
[4]; 48h, 25 mg/kg
  RMC-7977 (nmol/kg) Tumor: 433 nmol/kg and 394 nmol/kg and 691 nmol/kg
[4]; 72h, 5 mg/kg
  RMC-7977 (nmol/kg) Tumor: 52.4 nmol/kg and 38.4 nmol/kg
[4]; 72h, 10 mg/kg
  RMC-7977 (nmol/kg) Tumor: 155 nmol/kg and 86.2 nmol/kg and 63.8 nmol/kg and 71.8 nmol/kg and 72 nmol/kg
[4]; 72h, 25 mg/kg
  RMC-7977 (nmol/kg) Tumor: 253 nmol/kg and 209 nmol/kg and 230 nmol/kg
[4]; subcutaneous xenograft tumour models
  overall exposure in subcutaneous tumours compared with blood: approximately threefold increase
KRAS^G12C [5]
  Kd: 40.1 nM
[6]; Mus musculus, NCI-H441, po, read-out: EC50, total tumour concentration versus DUSP6 inhibition
  EC50: 130 nM
[6]; Mus musculus, NCI-H441 CDX, single oral administration, read-out: EC90, tumour concentration versus DUSP6 inhibition
  EC90: 1450 nM
[6]; NCI-H441 CDX tumour DUSP6 mRNA, single oral 10 mg/kg, 1 h, individual replicates, 10 mg/kg
  RMC-7977 10 mg/kg po dusp6: 34.819 and 101.252 and 98.4831
[6]; NCI-H441 CDX tumour DUSP6 mRNA, single oral 25 mg/kg, 1 h, individual replicates, 25 mg/kg
  RMC-7977 25 mg/kg po dusp6: 26.2056 and 15.6903 and 16.7583
[6]; NCI-H441 CDX, single oral dose of 10 mg kg^−1, at 8 h
  suppression of tumour DUSP6 levels: 91%
[6]; 8h, 1 mg/kg
  % inhibition of DUSP6 vs control: 63.5% and 36.8% and 52.6%
[6]; 8h, 5 mg/kg
  % inhibition of DUSP6 vs control: 53.7% and 91.7% and 1.5%
[6]; 8h, 10 mg/kg
  % inhibition of DUSP6 vs control: 95.7% and 96.4% and 96.3% and 93.6937% and 85.7607% and 93.075%
[6]; 8h, 25 mg/kg
  % inhibition of DUSP6 vs control: 95.995% and 81.4698% and 87.9011%
[6]; 24h, 1 mg/kg
  % inhibition of DUSP6 vs control: 0% and 16.6%
[6]; 24h, 5 mg/kg
  % inhibition of DUSP6 vs control: 6.8% and 29.4% and 61.8%
[6]; 24h, 10 mg/kg
  % inhibition of DUSP6 vs control: 89.7% and 90.2% and 86.9% and 86.5288% and 67.1731% and 84.3639%
[6]; 24h, 25 mg/kg
  % inhibition of DUSP6 vs control: 94.1768% and 94.6786% and 96.3905%
[6]; 48h, 1 mg/kg
  % inhibition of DUSP6 vs control: 0% and 32.5%
[6]; 48h, 5 mg/kg
  % inhibition of DUSP6 vs control: 3.9% and 33.4% and 22.2%
[6]; 48h, 10 mg/kg
  % inhibition of DUSP6 vs control: 72.3% and 74.6% and 69.6% and 56.232% and 64.817% and 89.3572%
[6]; 48h, 25 mg/kg
  % inhibition of DUSP6 vs control: 81.914% and 86.388% and 94.0545%
[6]; 72h, 5 mg/kg
  % inhibition of DUSP6 vs control: 0% and 11.9%
[6]; 72h, 10 mg/kg
  % inhibition of DUSP6 vs control: 0.2% and 45.2% and 48.1% and 87.4744% and 67.1731%
[6]; 72h, 25 mg/kg
  % inhibition of DUSP6 vs control: 87.2112% and 72.4915% and 81.7249%
[7]; spleen, day 15, 25 mg/kg PO daily, OVA peptide vaccinated C57BL/6J mice
  % Antigen specific CD8 T cells: 1.46% and 1.22% and 0.72%
[7]; splenocytes stimulated with SIINFEKL
  IFNγ production by ELISpot: 1885 and 890 and 922
[7]; splenocytes, no stim
  IFNγ production by ELISpot: 35 and 80 and 53
KRAS–SOS1; RMC-7977 0.152 nM
  Cellular nano-BRET of SOS1 (catalytic domain) binding to KRAS WT: 8.563 and 8.127 and 7.755 and 7.611 and 8.1239 and 8.058
KRAS–SOS1; RMC-7977 0.457 nM
  Cellular nano-BRET of SOS1 (catalytic domain) binding to KRAS WT: 8.149 and 7.736 and 7.651 and 7.24 and 7.671 and 7.508
KRAS–SOS1; RMC-7977 1.372 nM
  Cellular nano-BRET of SOS1 (catalytic domain) binding to KRAS WT: 7.907 and 7.747 and 7.493 and 7.384 and 7.007 and 7.17
KRAS–SOS1; RMC-7977 4.115 nM
  Cellular nano-BRET of SOS1 (catalytic domain) binding to KRAS WT: 6.922 and 7.229 and 6.471 and 6.374 and 6.52 and 6.661
KRAS–SOS1; RMC-7977 12.346 nM
  Cellular nano-BRET of SOS1 (catalytic domain) binding to KRAS WT: 6.508 and 6.709 and 6.01 and 5.988 and 6.2252 and 6.045
KRAS–SOS1; RMC-7977 37.037 nM
  Cellular nano-BRET of SOS1 (catalytic domain) binding to KRAS WT: 7.064 and 6.964 and 6.2728 and 5.9257 and 6.205 and 6.027
KRAS–SOS1; RMC-7977 111.111 nM
  Cellular nano-BRET of SOS1 (catalytic domain) binding to KRAS WT: 6.712 and 6.771 and 6.171 and 6.63 and 5.929 and 6.341
KRAS–SOS1; RMC-7977 333.333 nM
  Cellular nano-BRET of SOS1 (catalytic domain) binding to KRAS WT: 6.383 and 7.187 and 5.742 and 6.572 and 6.198 and 6.656
KRAS–SOS1; RMC-7977 1000.000 nM
  Cellular nano-BRET of SOS1 (catalytic domain) binding to KRAS WT: 6.907 and 6.939 and 5.652 and 5.948 and 6.113 and 6.236
